The target in series [1] is T1, Leucine aminopeptidase (Plasmodium falciparum 3D7, UniProt Q8IL11).
T1 sequence (Q8IL11 whole entry): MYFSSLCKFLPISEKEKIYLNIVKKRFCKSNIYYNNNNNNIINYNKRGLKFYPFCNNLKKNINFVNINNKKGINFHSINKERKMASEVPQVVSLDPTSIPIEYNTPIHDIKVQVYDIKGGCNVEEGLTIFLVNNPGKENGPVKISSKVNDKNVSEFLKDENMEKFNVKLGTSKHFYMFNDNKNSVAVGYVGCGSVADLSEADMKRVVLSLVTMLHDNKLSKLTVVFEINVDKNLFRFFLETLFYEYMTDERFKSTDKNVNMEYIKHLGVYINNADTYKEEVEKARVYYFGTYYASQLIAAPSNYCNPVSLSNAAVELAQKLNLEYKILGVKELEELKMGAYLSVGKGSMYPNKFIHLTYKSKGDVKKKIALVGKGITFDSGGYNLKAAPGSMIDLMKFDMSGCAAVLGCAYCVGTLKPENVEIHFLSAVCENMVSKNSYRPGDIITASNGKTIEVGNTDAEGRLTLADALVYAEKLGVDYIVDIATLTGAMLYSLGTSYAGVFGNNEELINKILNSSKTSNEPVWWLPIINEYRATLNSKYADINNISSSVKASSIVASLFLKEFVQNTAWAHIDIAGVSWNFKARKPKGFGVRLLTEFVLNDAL
Kind of series: P. falciparum M17LAP inhibitors, primary screen, biochemical, fluorogenic H-Leu-NHMec substrate, 1536-well (AID 1619). It counts as functional.

The nature of series [2]: THP-1 cell cytotoxicity, dose response, cytotoxicity control for Vif-APOBEC3G degradation inhibitor project, THP-1 cells (AID 1117359). It counts as functional. To be noted: Human immunodeficiency virus 1, THP-1.
Series [3] deals with T2, Ubiquitin-conjugating enzyme E2 N (Homo sapiens, UniProt P61088).
T2 sequence (P61088 whole entry): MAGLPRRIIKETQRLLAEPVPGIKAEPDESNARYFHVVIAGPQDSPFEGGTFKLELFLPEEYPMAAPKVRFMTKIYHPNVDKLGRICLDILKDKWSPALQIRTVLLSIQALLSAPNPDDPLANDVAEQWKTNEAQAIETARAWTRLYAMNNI
It counts as functional.

In series [4] the target is T3, Streptokinase A (Streptococcus pyogenes serotype M1, UniProt P10520).
T3 sequence (P10520 whole entry): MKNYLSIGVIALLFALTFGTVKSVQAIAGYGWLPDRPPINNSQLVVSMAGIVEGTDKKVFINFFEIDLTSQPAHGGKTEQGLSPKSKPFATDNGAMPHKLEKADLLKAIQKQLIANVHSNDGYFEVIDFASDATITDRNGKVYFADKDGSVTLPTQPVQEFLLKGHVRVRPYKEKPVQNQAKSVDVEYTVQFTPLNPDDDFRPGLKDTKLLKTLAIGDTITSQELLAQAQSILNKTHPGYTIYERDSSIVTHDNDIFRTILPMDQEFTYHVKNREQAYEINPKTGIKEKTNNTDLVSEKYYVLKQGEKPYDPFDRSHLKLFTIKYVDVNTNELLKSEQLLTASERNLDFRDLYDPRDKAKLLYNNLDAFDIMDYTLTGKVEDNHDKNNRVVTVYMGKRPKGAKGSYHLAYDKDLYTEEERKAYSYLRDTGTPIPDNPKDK
Kind of series: S. pyogenes streptokinase expression inhibitors, potency, dose response, plasminogen activation absorbance, OD405 (AID 1914).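 Also: secreted streptokinase activity via plasminogen activation per viability signal from cell pellet.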 It counts as functional, Streptococcus pyogenes M1 GAS.

Series [5] concerns the target Nonstructural protein 1 (Influenza A virus, UniProt Q194T2). It counts as functional, Influenza A virus (A/California/07/2009(H1N1)).
Series [6] in a line: inhibitors of intracellular T. cruzi replication, confirmation, NIH3T3 host cells, beta-gal luminescence (AID 2044).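 Also: intracellular parasites grown in NIH/3T3 mouse fibroblasts as host cells; luminescent beta-galactosidase reporter signal from transgenic T. cruzi replicating inside host cells; inhibitors lower the luminescence signal.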 It counts as functional, cell-based.
Series [7] relates to Streptococcus sp. 'group A'. Kind of series: growth inhibition of control SK(-) GAS strain, dose response, counter-screen for streptokinase expression inhibitor project, luminescence, kanamycin, BacTiterGlo, confirmation (AID 1900). It counts as functional, organism-based. (Counterscreens check selectivity or assay interference.)
Series [8] concerns Streptococcus. Kind of series: Group A Streptococcus viability loss, dose response, counter-screen for streptokinase expression inhibitor project, luminescence, BacTiterGlo (AID 1915).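 Also: potency for reduction of bacterial viability or growth.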 It counts as functional, organism-based.
The nature of series [9]: Luminescence Cell-Based Dose Response HTS to Identify Activators of Luciferase Translation or Activity in H4 […] Cells. [Related pubchem assays: 1829 (Project Summary), 1814 (Primary HTS)]. It counts as functional.
Series [10] relates to H4. Kind of series: Luminescence Cell-Based Dose Response HTS to Identify Activators of 5'UTR Stem-Loop Driven Prion Protein mRNA Translation in H4 Neuroglioblastoma Cells. [Related pubchem assays: 1829 (Project Summary), 1814 (Primary HTS)]. It counts as functional. To be noted: Homo sapiens.
Series [11] in a line: cytotoxicity toward NIH3T3 fibroblasts, dose response, counter-screen, cell-based, ATP luminescence, mouse fibroblasts (AID 2010).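 Also: cells exposed to compound for about 90 hours before reading.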 It counts as functional.
The target in series [12] is T4, Cytochrome P450 1A2 (Homo sapiens, UniProt P05177).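 Also: PubChem cytochrome P450 panel assay, CYP1A2 panel member.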
T4 sequence (P05177 whole entry): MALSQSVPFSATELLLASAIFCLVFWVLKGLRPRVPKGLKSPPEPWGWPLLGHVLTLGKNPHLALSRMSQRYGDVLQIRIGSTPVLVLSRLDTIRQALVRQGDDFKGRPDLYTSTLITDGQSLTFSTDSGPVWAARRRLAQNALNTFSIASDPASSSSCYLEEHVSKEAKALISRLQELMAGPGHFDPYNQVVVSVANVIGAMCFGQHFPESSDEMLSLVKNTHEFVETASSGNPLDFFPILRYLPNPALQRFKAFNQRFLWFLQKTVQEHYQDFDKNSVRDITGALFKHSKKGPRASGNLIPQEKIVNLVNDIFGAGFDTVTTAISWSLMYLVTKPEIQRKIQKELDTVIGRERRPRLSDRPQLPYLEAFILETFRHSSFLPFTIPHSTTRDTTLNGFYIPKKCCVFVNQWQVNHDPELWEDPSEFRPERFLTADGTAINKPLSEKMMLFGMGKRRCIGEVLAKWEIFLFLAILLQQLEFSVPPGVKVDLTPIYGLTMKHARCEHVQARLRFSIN

In series [13] the target is Cytochrome P450 2C9 (Homo sapiens, UniProt P11712).
Sequence of Cytochrome P450 2C9 (P11712 whole entry): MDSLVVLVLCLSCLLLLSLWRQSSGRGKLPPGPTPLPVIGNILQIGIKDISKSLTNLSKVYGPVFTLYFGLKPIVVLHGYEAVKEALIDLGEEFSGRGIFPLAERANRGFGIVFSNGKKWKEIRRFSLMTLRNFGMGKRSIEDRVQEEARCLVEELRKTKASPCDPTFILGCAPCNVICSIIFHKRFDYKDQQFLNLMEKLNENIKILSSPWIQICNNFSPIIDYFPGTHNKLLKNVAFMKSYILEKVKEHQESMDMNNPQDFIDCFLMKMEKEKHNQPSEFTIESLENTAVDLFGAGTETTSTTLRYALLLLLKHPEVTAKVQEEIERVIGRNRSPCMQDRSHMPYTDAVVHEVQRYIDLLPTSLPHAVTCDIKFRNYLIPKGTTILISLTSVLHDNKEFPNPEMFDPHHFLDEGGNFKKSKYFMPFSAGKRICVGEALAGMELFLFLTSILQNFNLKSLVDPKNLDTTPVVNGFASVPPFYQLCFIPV
Series [14] concerns the target T5, Protein RecA (Mycobacterium tuberculosis, UniProt P9WHJ3).
T5 sequence (P9WHJ3 whole entry): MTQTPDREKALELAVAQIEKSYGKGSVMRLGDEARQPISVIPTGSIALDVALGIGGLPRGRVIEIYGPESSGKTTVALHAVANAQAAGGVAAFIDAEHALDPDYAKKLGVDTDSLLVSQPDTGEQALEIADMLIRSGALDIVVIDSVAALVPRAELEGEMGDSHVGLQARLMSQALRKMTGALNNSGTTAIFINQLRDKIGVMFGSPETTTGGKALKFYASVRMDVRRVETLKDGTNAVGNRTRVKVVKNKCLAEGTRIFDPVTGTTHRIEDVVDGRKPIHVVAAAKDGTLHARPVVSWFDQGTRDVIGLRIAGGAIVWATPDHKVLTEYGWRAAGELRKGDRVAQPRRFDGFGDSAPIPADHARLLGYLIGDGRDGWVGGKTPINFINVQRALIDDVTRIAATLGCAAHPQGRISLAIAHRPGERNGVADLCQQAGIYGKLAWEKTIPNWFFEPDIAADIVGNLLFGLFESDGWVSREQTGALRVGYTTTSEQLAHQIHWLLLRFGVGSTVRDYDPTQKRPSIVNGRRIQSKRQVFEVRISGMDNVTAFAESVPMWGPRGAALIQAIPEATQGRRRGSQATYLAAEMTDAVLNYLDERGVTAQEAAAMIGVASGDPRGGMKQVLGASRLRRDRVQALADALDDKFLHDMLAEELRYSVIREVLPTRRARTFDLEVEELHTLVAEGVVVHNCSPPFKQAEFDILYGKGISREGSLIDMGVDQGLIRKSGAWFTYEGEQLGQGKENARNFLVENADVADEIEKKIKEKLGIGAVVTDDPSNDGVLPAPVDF
Kind of series: Fluorescence Cell-Free Homogeneous Dose Retest to Identify Inhibitors of RecA-Intein Splicing Activity. [Related pubchem assays (depositor defined):AID2097, AID2223, AID489010, AID492950]. It counts as functional.

Series [15] addresses T6, Replicative DNA helicase DnaB (Mycobacterium tuberculosis, UniProt P9WMR3).
T6 sequence (P9WMR3 whole entry): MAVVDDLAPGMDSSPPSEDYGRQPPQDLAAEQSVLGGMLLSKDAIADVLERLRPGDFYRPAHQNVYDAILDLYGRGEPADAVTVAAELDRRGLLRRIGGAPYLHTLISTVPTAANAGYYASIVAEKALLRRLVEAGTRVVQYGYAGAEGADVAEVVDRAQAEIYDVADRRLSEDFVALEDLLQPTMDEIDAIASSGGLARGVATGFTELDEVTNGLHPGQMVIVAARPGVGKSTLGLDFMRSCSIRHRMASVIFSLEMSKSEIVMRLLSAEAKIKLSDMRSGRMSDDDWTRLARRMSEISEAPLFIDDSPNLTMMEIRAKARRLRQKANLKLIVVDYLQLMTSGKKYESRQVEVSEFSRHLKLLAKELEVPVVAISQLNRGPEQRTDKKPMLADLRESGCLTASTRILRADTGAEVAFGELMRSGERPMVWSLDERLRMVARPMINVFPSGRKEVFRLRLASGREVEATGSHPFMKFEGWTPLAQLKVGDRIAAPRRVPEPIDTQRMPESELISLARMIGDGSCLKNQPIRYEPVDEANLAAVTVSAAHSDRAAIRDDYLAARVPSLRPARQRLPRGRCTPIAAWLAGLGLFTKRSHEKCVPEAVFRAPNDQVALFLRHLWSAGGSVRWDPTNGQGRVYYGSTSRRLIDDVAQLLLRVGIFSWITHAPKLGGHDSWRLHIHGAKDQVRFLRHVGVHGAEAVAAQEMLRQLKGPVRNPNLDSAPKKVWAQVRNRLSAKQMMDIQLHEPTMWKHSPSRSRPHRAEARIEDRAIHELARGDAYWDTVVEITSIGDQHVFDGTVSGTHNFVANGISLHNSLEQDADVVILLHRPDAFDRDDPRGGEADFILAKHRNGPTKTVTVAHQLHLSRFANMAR
Kind of series: DnaB intein splicing inhibitors, dose response, biochemical, cell-free fluorescence (AID 449749). It counts as functional.

“And” between values parts separate entries of the source, which are not always exact repeats. Equal entries are not always repeated. The source made the active and inactive calls.

Sequence of Nonstructural protein 1 (Q194T2 whole entry): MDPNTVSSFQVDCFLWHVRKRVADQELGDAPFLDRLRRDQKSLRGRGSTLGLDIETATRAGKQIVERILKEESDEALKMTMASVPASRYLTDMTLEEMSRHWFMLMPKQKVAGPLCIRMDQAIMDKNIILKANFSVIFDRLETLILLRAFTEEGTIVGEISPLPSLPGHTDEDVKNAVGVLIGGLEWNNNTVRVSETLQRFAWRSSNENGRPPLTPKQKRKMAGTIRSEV

`Clc1ccccc1CNc1ncnc2nc[nH]c12`: the half-maximal inhibitory concentration (IC50) in [1] is 48.3 µM (active). As to `COc1ccc2nc(N3CCN(C(=O)c4ccc5ncsc5c4)CC3)sc2c1`, the cytotoxic concentration (CC50) in [2] was > 40 µM (active). Regarding `CCC(=O)NC(c1cc(Cl)c2ccccc2c1O)C(C)C` (centres undefined), in [3], the IC50 was > 20 µM (inactive). With `CCN1CCN(Cc2ccc(NC(=O)c3cc(NC(=O)c4cc(-c5ccc(OC)cc5)n[nH]4)cc(OC)c3)cc2C(F)(F)F)CC1`, the IC50 in [3] is > 20 µM (inactive). Moreover, in [4], the concentration for a half-maximal effect (EC50) is recorded as > 150 µM (not active).

On to `Cc1ccc(C(=O)/C=C/c2cc(C#N)n(C)c2C)cc1`, for which the CC50 in series [2] was > 40 µM (active). As for `COc1ccccc1N1CCN(C(=O)c2ccoc2C)CC1`, in [2], the half-maximal cytotoxic concentration (CC50) was > 40 µM (active). On to `Cc1cccc(N(C(=O)c2snc(C(N)=O)c2N)C(C(=O)NC2CCCC2)c2ccco2)c1` (centres undefined), for which, in [3], the IC50 was > 20 µM (inactive). As for `CN(CC(=O)O)Cc1nc2ccccc2[nH]1`, the IC50 in series [5] is 11.6 µM (active).

With `Nc1nc(-c2ccccn2)nc(N)c1Cc1ccccc1F`, the EC50 is > 150 µM (not active) in [4]; 2.52 µM (active) in [6]; 11 µM (active) in [7]; > 150 µM (not active) in series [8]; 5.85 µM (active) in [9]; 0.414 µM (active) in [10]. Also, the EC50 in [11] is recorded as > 60 µM (not active). The half-inhibitory concentration (IC50) in [5] was 6.51 µM (active). As to `COc1ccccc1NC(=O)c1c(/N=C/c2cccc([N+](=O)[O-])c2)cnn1C`, the IC50 in [3] was > 20 µM (inactive). Regarding `Cc1ccc(NC(=O)CSc2nc3ccccc3c(=O)n2CCCC(=O)NCCCN2CCOCC2)cc1C`, in series [3], the IC50 is > 20 µM (inactive). With `Cc1cc(NC(=O)CCN2C(=O)C3C4CCC(C4)C3C2=O)c(C)cc1Br` (centres undefined), the AC50 was 15.8 µM (inconclusive) in series [12] and “inconclusive” in series [13]. In addition, the IC50 in series [1] was 13.7 µM (active). Turning to `Nc1n[nH]c(SCC(=O)Nc2ccc3c(c2)CCC3)n1`, in series [1], the IC50 is 45.2 µM (active). `O=C(Cc1cc(O)n[nH]1)N/N=C/C(Cl)=C/c1ccccc1`: the concentration for a half-maximal effect (EC50) in [14] is 1.02 µM (active) and 2.32 µM (active). Moreover, the concentration at half-maximal activity (AC50) in series [15] was 1.95 µM (active) and 2.24 µM (active). In addition, the concentration for half-maximal inhibition (IC50) in [1] was 90.6 µM (active).

With `CC1CCN(C(=O)c2ccc3c(c2NCCO)C(=O)c2ccccc2C3=O)CC1`, in series [5], the IC50 was 24.5 µM (active).

For the compound `O=C(c1ccco1)N1CCN(C(=O)c2cn(-c3ccccc3)nc2-c2ccccc2)CC1`, the CC50 in series [2] was 32.8 µM (active).

For the compound `O=C(c1ccco1)N1CCN(C(=O)c2[nH]ncc2[N+](=O)[O-])CC1`, the concentration for half-maximal inhibition (IC50) in series [1] was 2.22 µM (active).

As usually defined, the IC50 is the concentration at which inhibition is half-maximal. The term CC50 denotes the concentration at which the toxic effect on the cells reaches its halfway point. What is called EC50 is the concentration giving half of the maximal effect. As a reminder, the AC50 is the midpoint of the concentration-response curve, whichever way the signal moves.
